Laboratory results: PubChem BioAssay AID2060490 (Molecular Pharmacology Branch, DTP, NCI, 2025)
Values joined by “and” are separate entries in the source; they are usually repeats but may differ in a detail not shown here. Identical values can stand only once.

Tested on: 885512-296-R-J2-PDC complex spheroid viability
Assay: Anticancer human tumor 885512-296-R-J2-PDC patient-derived breast carcinoma cell line growth inhibition [GQUAD]
Details: for viability, T/C: stronger effect = lower value
Source text: DNA G-quadruplex Stabilizer Agents in Combinations in Complex Spheroids
A high-throughput screen of multi-cell type tumor spheroids was designed to identify active combinations of DNA G-quadruplex stabilizer agents and targeted small molecules. Complex spheroids include a stromal component modeled by human endothelial cells (HUVEC) and fibroblasts modeled by human mesenchymal stem cells (MSCs). The concentration ranges selected for each drug and investigational agent were based upon clinically achievable concentrations if the clinical Cmax of the agent was known.
Compounds. The drugs and investigational agents: pidnarulex (CX-5461; NSC782164), APTO-253 (NSC789042), BRACO-19 (NSC847499), peposertib (NSC802822), ceralasertib (NSC780249), elimusertib (NSC800525), camonsertib (NSC841442), AZD-1390 (NSC803789), olaparib (NSC753686), talazoparib (NSC767125), ART-558 (NSC835418), sotorasib (NSC818433), MRTX-1133 (NSC836407), SN-38 (NSC673596), topotecan (NSC609699), etoposide (NSC141540), doxorubicin (NSC123127), gemcitabine (NSC613327), 5-fluorouracil (NSC19893), paclitaxel (NSC125973), vemurafenib (NSC761431), panobinostat (NSC761190), R-306465 (JNJ-16241199; NSC773264), adavosertib (NSC754352), TP-3654 (NSC805149), carboplatin (NSC241240), KSQ-4279 (NSC840948), and staurosporine (NSC755774) were obtained from the National Cancer Institute (NCI) Developmental Therapeutics Program Chemical Repository (34). The FDA-approved anticancer drug set is available from the NCI Developmental Therapeutics Program. […] The stock solutions were prepared in dimethyl sulfoxide (DMSO, Sigma-Aldrich, St. Louis, MO, cat. D2650) at 800-fold the tested concentration and stored at -70 degrees C prior to their use. All drugs and investigational agents were tested over a range starting from a high concentration at or near the clinical Cmax and decreasing in half-log increments. If the clinical Cmax for an agent had not been determined, the highest concentration tested was 10 microM.
2.3 Cell Culture. All cells were maintained in an incubator at 37 degrees C and 5% CO2 with 95% humidity. The PDC lines were cultured according to standard operating procedures established by the NCI PDMR. All PDCs were thawed and cultured in Matrigel-coated flasks prepared with a working solution of 1X Ham's F-12 nutrient mix, without supplementation (Invitrogen, cat. 11765054), 100 U/mL penicillin-streptomycin (Invitrogen, cat. 15140122), and 2.5% Matrigel (Corning Inc., cat. 354248) for the first three passages. The 857933-349-R-J2-PDC line was cultured in 6C/Colon 1B media, which includes advanced DMEM/F-12 (Thermo Fisher Scientific, cat. 12634028), 10 mM HEPES (Thermo Fisher Scientific, cat. 15630080), 1X GlutaMAX supplement (Thermo Fisher Scientific, cat. 35050061), 0.1 mg/mL primocin (InvivoGen, cat. ant-pm-2), 10% defined fetal bovine serum, heat inactivated (HyClone Laboratories Inc., cat. SH30070.03HI), 50% L-WRN conditioned media (ATCC, cat. CRL-3276), 1.25 mM N-Acetyl-L-cysteine (Sigma-Aldrich, cat. A9165), 10 mM nicotinamide (Sigma-Aldrich, cat. N0636), 1X B-27 supplement (Thermo Fisher Scientific, cat. 17504044), 1X N-2 supplement (Thermo Fisher Scientific, cat. 17502048), 10 microM Y-27632 dihydrochloride (Tocris Bioscience, cat. 1254), and 50 ng/mL human EGF recombinant protein (Thermo Fisher Scientific, cat. PHG0311). The 485176-168-R4-J1-PDC line was cultured in Panc media, which includes all 6C/Colon 1B media components plus 100 ng/mL human FGF-10 (Thermo Fisher Scientific, cat. 100-26), 500 nM SB-431542 (Selleckchem, cat. S1067), and gastrin (Tocris, cat. 3006).
[…]

[1] = curve of first compound, second compound 0.0316 µM
[2] = curve of first compound, second compound 0.1 µM
[3] = curve of first compound, second compound 0.316 µM
[4] = curve of first compound, second compound 1 µM
[5] = curve of first compound, second compound 3.16 µM
[6] = curve of first compound, second compound 10 µM
[7] = second compound 0.0316 µM, first compound 0.0316 µM
[8] = second compound 0.0316 µM, first compound 0.1 µM
[9] = second compound 0.0316 µM, first compound 0.316 µM
[10] = second compound 0.0316 µM, first compound 1 µM
[11] = second compound 0.0316 µM, first compound 3.16 µM
[12] = second compound 0.0316 µM, first compound 10 µM
[13] = second compound 0.1 µM, first compound 0.0316 µM
[14] = second compound 0.1 µM, first compound 0.1 µM
[15] = second compound 0.1 µM, first compound 0.316 µM
[16] = second compound 0.1 µM, first compound 1 µM
[17] = second compound 0.1 µM, first compound 3.16 µM
[18] = second compound 0.1 µM, first compound 10 µM
[19] = second compound 0.316 µM, first compound 0.0316 µM
[20] = second compound 0.316 µM, first compound 0.1 µM
[21] = second compound 0.316 µM, first compound 0.316 µM
[22] = second compound 0.316 µM, first compound 1 µM
[23] = second compound 0.316 µM, first compound 3.16 µM
[24] = second compound 0.316 µM, first compound 10 µM
[25] = second compound 1 µM, first compound 0.0316 µM
[26] = second compound 1 µM, first compound 0.1 µM
[27] = second compound 1 µM, first compound 0.316 µM
[28] = second compound 1 µM, first compound 1 µM
[29] = second compound 1 µM, first compound 3.16 µM
[30] = second compound 1 µM, first compound 10 µM
[31] = second compound 3.16 µM, first compound 0.0316 µM
[32] = second compound 3.16 µM, first compound 0.1 µM
[33] = second compound 3.16 µM, first compound 0.316 µM
[34] = second compound 3.16 µM, first compound 1 µM
[35] = second compound 3.16 µM, first compound 3.16 µM
[36] = second compound 3.16 µM, first compound 10 µM
[37] = second compound 10 µM, first compound 0.0316 µM
[38] = second compound 10 µM, first compound 0.1 µM
[39] = second compound 10 µM, first compound 0.316 µM
[40] = second compound 10 µM, first compound 1 µM
[41] = second compound 10 µM, first compound 3.16 µM
[42] = second compound 10 µM, first compound 10 µM
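Note: spheroids exposed to the compounds for one week.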
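Throughout, for viability, T/C: percent of tumor spheroid viability relative to DMSO vehicle control wells.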

COc1cc(C2c3cc4c(cc3C(OC3OC5COC(C)OC5C(O)C3O)C3COC(=O)C23)OCO4)cc(OC)c1O (stereo unspecified) + Cc1cnc(CNC(=O)c2c(=O)c3ccc(N4CCCN(C)CC4)nc3n3c2sc2ccccc23)cn1
IC50 [1]: 0.318 µM
IC50 [2]: 0.187 µM
IC50 [3]: < 0.0316 µM
IC50 [4]: < 0.0316 µM
IC50 [5]: < 0.0316 µM
IC50 [6]: < 0.0316 µM
viability, T/C [7]: 80.8%
viability, T/C [8]: 81%
viability, T/C [9]: 48%
viability, T/C [10]: 22.8%
viability, T/C [11]: 13.4%
viability, T/C [12]: 10.5%
viability, T/C [13]: 57.2%
viability, T/C [14]: 55.8%
viability, T/C [15]: 45%
viability, T/C [16]: 28%
viability, T/C [17]: 13.7%
viability, T/C [18]: 11.4%
viability, T/C [19]: 26%
viability, T/C [20]: 34.3%
viability, T/C [21]: 23.3%
viability, T/C [22]: 24.1%
viability, T/C [23]: 16.4%
viability, T/C [24]: 8.65%
viability, T/C [25]: 29%
viability, T/C [26]: 21.8%
viability, T/C [27]: 23.6%
viability, T/C [28]: 21.1%
viability, T/C [29]: 21.3%
viability, T/C [30]: 14.2%
viability, T/C [31]: 34%
viability, T/C [32]: 28.4%
viability, T/C [33]: 29.6%
viability, T/C [34]: 23.5%
viability, T/C [35]: 22.3%
viability, T/C [36]: 17.7%
viability, T/C [37]: 0.09%
viability, T/C [38]: 0.17%
viability, T/C [39]: 0.18%
viability, T/C [40]: 0.15%
viability, T/C [41]: 0.16%
viability, T/C [42]: 0.18%

COc1ncnc(C2CC2)c1-c1ncc2cnn(Cc3ccc(-c4nc(C(F)(F)F)cn4C(C)C)cc3)c2n1 + CN(C)c1ccc(Nc2c3ccc(NC(=O)CCN4CCCC4)cc3nc3cc(NC(=O)CCN4CCCC4)ccc23)cc1
IC50 [1]: > 10 µM
IC50 [2]: > 10 µM
IC50 [3]: > 10 µM
IC50 [4]: > 10 µM
IC50 [5]: > 10 µM
IC50 [6]: < 0.0316 µM
viability, T/C [7]: 107%
viability, T/C [8]: 102%
viability, T/C [9]: 93.3%
viability, T/C [10]: 104%
viability, T/C [11]: 100%
viability, T/C [12]: 92.3%
viability, T/C [13]: 103%
viability, T/C [14]: 103%
viability, T/C [15]: 97.3%
viability, T/C [16]: 93.6%
viability, T/C [17]: 92.5%
viability, T/C [18]: 81.4%
viability, T/C [19]: 105%
viability, T/C [20]: 108%
viability, T/C [21]: 103%
viability, T/C [22]: 103%
viability, T/C [23]: 104%
viability, T/C [24]: 85.8%
viability, T/C [25]: 95%
viability, T/C [26]: 97.2%
viability, T/C [27]: 103%
viability, T/C [28]: 91%
viability, T/C [29]: 101%
viability, T/C [30]: 87.4%
viability, T/C [31]: 99.4%
viability, T/C [32]: 107%
viability, T/C [33]: 106%
viability, T/C [34]: 83.9%
viability, T/C [35]: 81.3%
viability, T/C [36]: 50.3%
viability, T/C [37]: 28.5%
viability, T/C [38]: 18.7%
viability, T/C [39]: 16.4%
viability, T/C [40]: 15.3%
viability, T/C [41]: 11.9%
viability, T/C [42]: 5.91%

C#Cc1c(F)ccc2cc(O)cc(-c3ncc4c(N5CC6CCC(C5)N6)nc(OCC56CCCN5CC(F)C6)nc4c3F)c12 (stereo unspecified)
viability, T/C (compound 0.0316 µM): 107% and 90.4% and 97.3%
viability, T/C (compound 0.1 µM): 97.7% and 92% and 97.9%
viability, T/C (compound 0.316 µM): 109% and 86.7% and 97.7%
viability, T/C (compound 1 µM): 90.1% and 70.5% and 98.3%
viability, T/C (compound 3.16 µM): 106% and 14% and 100%
viability, T/C (compound 10 µM): 83.4% and 22.4% and 90.7%
IC50 (curve of compound): > 10 µM and 1.57 µM
